We go through 23 molecules from patent US7612211B2, “Benzimidazole TRPV1 inhibitors” (Janssen Pharmaceutica N.V., priority 2006, dated 2009).

The subject of one assay is male Sprague-Dawley rats. Kind of assay: CFA-induced inflammatory pain, reversal of thermal hyperalgesia (radiant heat paw stimulator). Format: in vivo. The settings on record: Rattus norvegicus, po, 10 mg/kg orally, 24 h after CFA, maximal during the 300 min test, read-out: % Reversal (maximal percent reversal of hypersensitivity). As to the method:
Compounds of the present invention were tested in animal models of inflammation and inflammatory pain. To assess the ability of test compounds to reverse thermal hyperalgesia, baseline response latencies on a radiant heat (RH) paw stimulator were obtained before an intraplantar injection of 100 μL (1 μg/μL) CFA (1:1 CFA:saline) in male Sprague-Dawley rats. Only withdrawal responses that were quick hind paw movements (with or without licking of the hind paw) were recorded. Paw movements associated with locomotion or a shifting of weight were not considered a withdrawal response. The stimulus intensity that produced 10-15 sec baseline withdrawal latencies was used and a maximum cutoff of 20 sec was imposed. Hypersensitivity was evaluated 24 h after CFA.
Following the post-inflammogen latency assessment, rats were orally dosed (2.5 mL/kg) with test compound (10 mg/kg) or vehicle (20% hydroxypropyl beta cyclodextran). To determine the time of peak effect, latencies were redetermined 30, 60, 100, 180 and 300 min after compound administration.
Data are presented as the maximal percent reversal of hypersensitivity obtained during the 300 min test, which was calculated for each animal according to the formula: % reversal=100%×(treatment response−post-inflammogen response)/(pre-inflammogen response−post-inflammogen response)

A further assay addresses T1, hTRPV1 (Homo sapiens, UniProt Q8NER1).
T1 construct: expressed in transfected cells; host or cells: HEK293
Kind of assay: Human TRPV1 (hTRPV1) functional assay, FLIPR intracellular Ca2+, capsaicin challenge. Format: cell-based. The settings on record: HEK293 cells expressing hTRPV1, capsaicin 0.030 μM challenge; for IC50: derived from a variety of test concentrations, read-out: IC50 value (symbol c); for inhibition at 0.5 µM: test concentration of 0.5 μm, read-out: percent inhibition (symbol a); for inhibition at 0.2 µM: test concentration of 0.2 μm, read-out: percent inhibition (symbol b). Put shortly: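 HEK293 cells expressing the channel, loaded with Calcium 3 dye, were exposed to compounds for 5 min before capsaicin 0.030 μM (~80% maximal). FLIPR Ca2+ read; IC50/EC50 from quadruplicate concentration-response, or percent inhibition at 0.5 μm or 0.2 μm.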

T1 sequence (Q8NER1 whole entry): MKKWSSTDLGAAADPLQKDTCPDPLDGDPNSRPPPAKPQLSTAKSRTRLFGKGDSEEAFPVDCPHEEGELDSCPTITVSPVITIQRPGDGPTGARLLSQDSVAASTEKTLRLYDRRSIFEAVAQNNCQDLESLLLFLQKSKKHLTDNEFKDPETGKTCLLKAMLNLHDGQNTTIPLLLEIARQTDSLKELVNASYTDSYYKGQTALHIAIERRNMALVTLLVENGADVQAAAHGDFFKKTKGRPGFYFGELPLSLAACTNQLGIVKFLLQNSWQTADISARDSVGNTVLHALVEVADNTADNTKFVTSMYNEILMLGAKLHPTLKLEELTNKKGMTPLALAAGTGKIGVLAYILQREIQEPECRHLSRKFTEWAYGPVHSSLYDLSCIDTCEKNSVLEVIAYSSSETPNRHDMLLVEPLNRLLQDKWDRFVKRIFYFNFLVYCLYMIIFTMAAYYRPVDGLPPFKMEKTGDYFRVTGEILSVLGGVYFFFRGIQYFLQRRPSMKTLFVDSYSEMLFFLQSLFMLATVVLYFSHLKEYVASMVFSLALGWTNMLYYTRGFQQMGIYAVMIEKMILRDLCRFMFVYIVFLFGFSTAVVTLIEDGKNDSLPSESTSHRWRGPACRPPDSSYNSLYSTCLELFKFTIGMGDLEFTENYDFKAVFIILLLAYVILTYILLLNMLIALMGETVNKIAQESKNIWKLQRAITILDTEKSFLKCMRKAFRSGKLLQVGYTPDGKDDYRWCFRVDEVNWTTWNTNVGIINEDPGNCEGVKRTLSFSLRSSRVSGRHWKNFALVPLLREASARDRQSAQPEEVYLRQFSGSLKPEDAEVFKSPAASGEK

`NS(=O)(=O)c1ccccc1-c1ccc2[nH]c(COc3ccc(S(=O)(=O)C(F)(F)F)cc3)nc2c1` [Cpd 2, 2-[2-(4-trifluoromethanesulfonyl-phenoxymethyl)-1H-benzoimidazol-5-yl]-benzenesulfonamide]: the inhibition in vivo at 10 mg/kg in the assay with male Sprague-Dawley rats was 80%. Further, at hTRPV1, the IC50 (in general, the point on the concentration scale where inhibition reaches its midpoint) is 0.01 µM and the inhibition (in general, the share of the control response that was lost under treatment) at 0.5 µM came to 99%.

As to `NS(=O)(=O)c1ccccc1-c1ccc2[nH]c(COc3ccc(OC(F)(F)F)cc3)nc2c1` [Cpd 16, 2-[2-(4-trifluoromethoxy-phenoxymethyl)-1H-benzoimidazol-5-yl]-benzenesulfonamide], the inhibition in vivo at 10 mg/kg in the assay with male Sprague-Dawley rats was 70%. Also, at hTRPV1, the IC50 was 0.01 µM and the inhibition at 0.5 µM was determined as 99%. In the same order, the values of `CNS(=O)(=O)c1ccccc1-c1ccc2[nH]c(COc3ccc(C(F)(F)F)cc3)nc2c1` [Cpd 17, N-methyl-2-[2-(4-trifluoromethyl-phenoxymethyl)-1H-benzoimidazol-5-yl]-benzenesulfonamide] are 100%, 0.001 µM and 100%. For `CC(C)(O)c1ccccc1-c1ccc2[nH]c(COc3ccc(C(F)(F)F)cc3)nc2c1` [Cpd 21, 2-{2-[2-(4-trifluoromethyl-phenoxymethyl)-1H-benzoimidazol-5-yl]-phenyl}-propan-2-ol], in that order: 100%, 0.014 µM and 99%.

In the case of `CS(=O)(=O)c1ccccc1-c1ccc2[nH]c(COc3ccc(S(=O)(=O)C(F)(F)F)cc3)nc2c1` [Cpd 86, 5-(2-methanesulfonyl-phenyl)-2-(4-trifluoromethanesulfonyl-phenoxymethyl)-1H-benzoimidazole], in the assay with male Sprague-Dawley rats, the inhibition in vivo at 10 mg/kg amounted to 100%. Besides, on hTRPV1, the IC50 amounted to 0.0049 µM and the inhibition at 0.2 µM turned out to be 97%. For `O=C(CO)c1ccccc1-c1ccc2[nH]c(COc3ccc(C(F)(F)F)cc3)nc2c1` [Cpd 151, 2-hydroxy-1-{2-[2-(4-trifluoromethyl-phenoxymethyl)-1H-benzoimidazol-5-yl]-phenyl}-ethanone], the inhibition at 0.2 µM on hTRPV1 was determined as 33%. On to `O=C(NCCO)c1ccccc1-c1ccc2[nH]c(COc3ccc(C(F)(F)F)cc3)nc2c1` [Cpd 152, N-(2-hydroxy-ethyl)-2-[2-(4-trifluoromethyl-phenoxymethyl)-1H-benzoimidazol-5-yl]-benzamide], for which, at hTRPV1, the inhibition at 0.2 µM came out at 38%. Take `CC(C)(O)CNC(=O)c1ccccc1-c1ccc2[nH]c(COc3ccc(C(F)(F)F)cc3)nc2c1` [Cpd 153, N-(2-hydroxy-2-methyl-propyl)-2-[2-(4-trifluoromethyl-phenoxymethyl)-1H-benzoimidazol-5-yl]-benzamide]: on hTRPV1, the inhibition at 0.2 µM was determined as 31%. Consider `CC(O)CNC(=O)c1ccccc1-c1ccc2[nH]c(COc3ccc(C(F)(F)F)cc3)nc2c1` (stereo not drawn) [Cpd 154, N-(2-hydroxy-propyl)-2-[2-(4-trifluoromethyl-phenoxymethyl)-1H-benzoimidazol-5-yl]-benzamide], for which the inhibition at 0.2 µM at hTRPV1 amounted to 68%. On the same count and under the same terms, for `CN(CCO)C(=O)c1ccccc1-c1ccc2[nH]c(COc3ccc(C(F)(F)F)cc3)nc2c1` [Cpd 155, N-(2-hydroxy-ethyl)-N-methyl-2-[2-(4-trifluoromethyl-phenoxymethyl)-1H-benzoimidazol-5-yl]-benzamide] the value was 21%.

Regarding `CC(Oc1ccc(C(F)(F)F)cc1)c1nc2cc(-c3ccccc3S(N)(=O)=O)ccc2[nH]1` (stereo not drawn) [Cpd 156, 2-{2-[1-(4-trifluoromethyl-phenoxy)-ethyl]-1H-benzoimidazol-5-yl}-benzenesulfonamide], at hTRPV1, the IC50 was 0.078 µM and the inhibition at 0.2 µM is 76%. `CCC(Oc1ccc(C(F)(F)F)cc1)c1nc2cc(-c3ccccc3S(N)(=O)=O)ccc2[nH]1` (stereo not drawn) [Cpd 157, 2-{2-[1-(4-trifluoromethyl-phenoxy)-propyl]-1H-benzoimidazol-5-yl}-benzenesulfonamide]: at hTRPV1, the inhibition at 0.2 µM stood at 20%. As to `O=S(=O)(c1ccccc1-c1ccc2[nH]c(COc3ccc(C(F)(F)F)cc3)nc2c1)C(F)(F)F` [Cpd 158, 5-(2-trifluoromethanesulfonyl-phenyl)-2-(4-trifluoromethyl-phenoxymethyl)-1H-benzoimidazole], on hTRPV1, the inhibition at 0.2 µM was 13%. In the case of `CC(C)(O)CS(=O)(=O)c1ccccc1-c1ccc2[nH]c(COc3ccc(C(F)(F)F)cc3)nc2c1` [Cpd 159, 2-methyl-1-{2-[2-(4-trifluoromethyl-phenoxymethyl)-1H-benzoimidazol-5-yl]-benzenesulfonyl}-propan-2-ol], at hTRPV1, the IC50 turned out to be 0.022 µM and the inhibition at 0.2 µM was found to be 90%. In the same order, the values of `CC(O)CS(=O)(=O)c1ccccc1-c1ccc2[nH]c(COc3ccc(C(F)(F)F)cc3)nc2c1` (stereo not drawn) [Cpd 160, 1-{2-[2-(4-trifluoromethyl-phenoxymethyl)-1H-benzoimidazol-5-yl]-benzenesulfonyl}-propan-2-ol] are 0.0125 µM and 90%. Turning to `O=S(=O)(CCO)c1ccccc1-c1ccc2[nH]c(COc3ccc(S(=O)(=O)C(F)(F)F)cc3)nc2c1` [Cpd 161, 2-{2-[2-(4-trifluoromethanesulfonyl-phenoxymethyl)-1H-benzoimidazol-5-yl]-benzenesulfonyl}-ethanol], the inhibition at 0.2 µM at hTRPV1 is 63%.

`CS(=O)(=O)c1ccc(OCc2nc3cc(-c4ccccc4S(=O)(=O)CCO)ccc3[nH]2)cc1` [Cpd 162, 2-{2-[2-(4-methanesulfonyl-phenoxymethyl)-1H-benzoimidazol-5-yl]-benzenesulfonyl}-ethanol]: the inhibition at 0.2 µM at hTRPV1 amounted to 4%. As to `CC(C)(O)c1ccccc1-c1ccc2[nH]c(COc3ccc(C4CC4)cc3)nc2c1` [Cpd 163, 2-{2-[2-(4-cyclopropyl-phenoxymethyl)-1H-benzoimidazol-5-yl]-phenyl}-propan-2-ol], on hTRPV1, the IC50 amounted to 0.003 µM and the inhibition at 0.2 µM was determined as 98%. In the same order, the values of `NS(=O)(=O)c1ccccc1-c1ccc2[nH]c(COc3ccc(C4CC4)cc3)nc2c1` [Cpd 164, 2-[2-(4-cyclopropyl-phenoxymethyl)-1H-benzoimidazol-5-yl]-benzenesulfonamide] are 0.025 µM and 97%. For `CNS(=O)(=O)c1ccccc1-c1ccc2[nH]c(COc3ccc(C4CC4)cc3)nc2c1` [Cpd 165, 2-[2-(4-cyclopropyl-phenoxymethyl)-1H-benzoimidazol-5-yl]-N-methyl-benzenesulfonamide], in that order: 0.006 µM and 98%. `CN(C)S(=O)(=O)c1ccccc1-c1ccc2[nH]c(COc3ccc(C4CC4)cc3)nc2c1` [Cpd 166, 2-[2-(4-cyclopropyl-phenoxymethyl)-1H-benzoimidazol-5-yl]-N,N-dimethyl-benzenesulfonamide]: at hTRPV1, the IC50 stood at 0.007 µM and the inhibition at 0.2 µM was 98%. On to `CS(=O)(=O)c1ccccc1-c1ccc2[nH]c(COc3ccc(C4CC4)cc3)nc2c1` [Cpd 167, 2-(4-cyclopropyl-phenoxymethyl)-5-(2-methanesulfonyl-phenyl)-1H-benzoimidazole], for which, on hTRPV1, the IC50 was 0.007 µM and the inhibition at 0.2 µM came out at 98%. Turning to `CS(=O)(=O)Nc1ccccc1-c1ccc2[nH]c(COc3ccc(C4CC4)cc3)nc2c1` [Cpd 168, N-{2-[2-(4-cyclopropyl-phenoxymethyl)-1H-benzoimidazol-5-yl]-phenyl}-methanesulfonamide], on hTRPV1, the IC50 is 0.024 µM and the inhibition at 0.2 µM amounted to 97%.
